Assay results as given in publication PMC3127118, “Characterization of a Deswapped Triple Mutant Bovine Odorant Binding Protein” (2011).

Target: T1, GCC-bOBP (monomeric triple mutant of bovine odorant binding protein) (Bos taurus, UniProt P07435, W64C/INS121G/H155C)
T1 construct: GCC-bOBP, deswapped monomeric triple mutant
T1 sequence (P07435 with tags, fused parts or gaps W64C/INS121G/H155C): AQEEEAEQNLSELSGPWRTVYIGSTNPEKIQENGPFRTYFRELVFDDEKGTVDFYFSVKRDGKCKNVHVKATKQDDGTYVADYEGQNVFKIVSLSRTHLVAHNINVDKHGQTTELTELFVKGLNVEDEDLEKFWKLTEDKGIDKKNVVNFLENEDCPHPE
Test: fluorescence titration (direct AMA fluorescence, excitation […] nm; FRET from Trp, excitation […] nm, gave Kd […]), pH […] °C

## Nc1cccc2cc3ccccc3cc12 [AMA, 1-aminoanthracene]
  Kd: 5 ± 0.2 µM
